# Measured values taken from PubChem BioAssay (NCI).
#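 1) Cells in 96-well plates. 2) Compound, 48 h, 5 concentrations. 3) Linear interpolation between surrounding doses. 4) Unreached endpoint = highest concentration. GI50 marks 50% less growth. At the TGI there is no net growth.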
# Columns and labels:
# Experiment in all cases: NCI anticancer screen, dose series, 48 h
# [1] = system: PC-3 prostate
# [2] = system: M14 melanoma
# [3] = system: NCI/ADR-RES ovarian
# [4] = system: OVCAR-4 ovarian
# [5] = system: RPMI-8226 leukemia
# [6] = system: EKVX NSCLC
# [7] = system: BT-549 breast
# [8] = system: HL-60(TB) leukemia
# [9] = system: OVCAR-5 ovarian
# [10] = system: U251 CNS
# [11] = system: NCI-H23 lung
# [12] = system: HCT-116 colon
# [13] = system: UACC-257 melanoma
# [14] = system: SF-295 CNS
# [15] = system: ACHN renal
# [16] = system: 786-0 renal
# [17] = system: HOP-92 NSCLC
# [18] = system: MOLT-4 leukemia
# [19] = system: T-47D breast
# [20] = system: SK-MEL-2 melanoma
# [21] = system: OVCAR-8 ovarian
# [22] = system: SK-MEL-5 melanoma
# [23] = system: LOX IMVI melanoma
# [24] = system: SK-OV-3 ovarian
# [25] = system: CCRF-CEM leukemia
# [26] = system: MALME-3M melanoma
# [27] = system: HCT-15 colon
# [28] = system: SNB-19 CNS
# [29] = system: HS 578T breast
# [30] = system: OVCAR-3 ovarian
# [31] = system: SN12C renal
# [32] = system: SF-268 CNS
# [33] = system: MDA-MB-435
# [34] = system: HCC-2998 colon
# [35] = system: RXF 393 renal
# [36] = system: SW-620 colon
# [37] = system: KM12 colon
# [38] = system: HOP-62 NSCLC
# [39] = system: TK-10 renal
# [40] = system: SK-MEL-28 melanoma
# [41] = system: SF-539 CNS
# [42] = system: NCI-H226 lung
# [43] = system: IGROV1 ovarian
# [44] = system: HT29 colon
# [45] = system: COLO 205 colon
# [46] = system: UACC-62 melanoma
# [47] = system: MDA-MB-231 breast
# [48] = system: DU-145 prostate
# [49] = system: A549 NSCLC
# [50] = system: CAKI-1 renal
# [51] = system: SR leukemia
# [52] = system: SNB-75 CNS
# [53] = system: UO-31 renal
# [54] = system: NCI-H460 lung
# [55] = system: NCI-H522 lung
compound,measurement,setting,value
O=c1c2ccccc2sc2c(NCCCNCCO)nc3ccccc3c12,GI50,[1],1.49 µM
same,TGI,[1],2.98 µM
same,GI50,[2],1.71 µM
same,TGI,[2],3.33 µM
same,GI50,[3],1.86 µM
same,TGI,[3],4.56 µM
same,GI50,[4],2.17 µM
same,TGI,[4],6.37 µM
same,GI50,[5],1.92 µM
same,TGI,[5],4.89 µM
same,GI50,[6],1.67 µM
same,TGI,[6],4.58 µM
same,GI50,[7],2.81 µM
same,TGI,[7],11.1 µM
same,GI50,[8],1.92 µM
same,TGI,[8],3.92 µM
same,GI50,[9],1.56 µM
same,TGI,[9],3.31 µM
same,GI50,[10],1.76 µM
same,TGI,[10],3.57 µM
same,GI50,[11],2.01 µM
same,TGI,[11],7.55 µM
same,GI50,[12],1.3 µM
same,TGI,[12],2.6 µM
same,GI50,[13],1.93 µM
same,TGI,[13],3.6 µM
same,GI50,[14],1.83 µM
same,TGI,[14],4.11 µM
same,GI50,[15],1.39 µM
same,TGI,[15],2.81 µM
same,GI50,[16],1.49 µM
same,TGI,[16],2.92 µM
same,GI50,[17],0.922 µM
same,TGI,[17],5.67 µM
same,GI50,[18],1.26 µM
same,TGI,[18],3.32 µM
same,GI50,[19],1.99 µM
same,TGI,[19],4.38 µM
same,GI50,[20],1.87 µM
same,TGI,[20],3.62 µM
same,GI50,[21],1.97 µM
same,TGI,[21],4.46 µM
same,GI50,[22],1.64 µM
same,TGI,[22],3.03 µM
same,GI50,[23],1.28 µM
same,TGI,[23],2.82 µM
same,GI50,[24],2.14 µM
same,TGI,[24],7.31 µM
same,GI50,[25],1.59 µM
same,TGI,[25],3.57 µM
same,GI50,[26],1.58 µM
same,TGI,[26],3.3 µM
same,GI50,[27],1.57 µM
same,TGI,[27],3.52 µM
same,GI50,[28],2.02 µM
same,TGI,[28],5.13 µM
same,GI50,[29],1.67 µM
same,TGI,[29],5.65 µM
same,GI50,[30],1.81 µM
same,TGI,[30],3.65 µM
same,GI50,[31],1.47 µM
same,TGI,[31],3.24 µM
same,GI50,[32],1.69 µM
same,TGI,[32],4.24 µM
same,GI50,[33],1.77 µM
same,TGI,[33],3.25 µM
same,GI50,[34],1.72 µM
same,TGI,[34],3.64 µM
same,GI50,[35],1.46 µM
same,TGI,[35],3.52 µM
same,GI50,[36],1.31 µM
same,TGI,[36],2.74 µM
same,GI50,[37],1.77 µM
same,TGI,[37],3.48 µM
same,GI50,[38],1.34 µM
same,TGI,[38],2.82 µM
same,GI50,[39],1.91 µM
same,TGI,[39],3.38 µM
same,GI50,[40],1.81 µM
same,TGI,[40],3.52 µM
same,GI50,[41],1.65 µM
same,TGI,[41],3.23 µM
same,GI50,[42],1.41 µM
same,TGI,[42],2.95 µM
same,GI50,[43],1.35 µM
same,TGI,[43],3.17 µM
same,GI50,[44],1.51 µM
same,TGI,[44],2.97 µM
same,GI50,[45],1.47 µM
same,TGI,[45],3.23 µM
same,GI50,[46],1.89 µM
same,TGI,[46],3.85 µM
same,GI50,[47],1.13 µM
same,TGI,[47],2.63 µM
same,GI50,[48],1.6 µM
same,TGI,[48],3.33 µM
same,GI50,[49],1.53 µM
same,TGI,[49],3.41 µM
same,GI50,[50],1.6 µM
same,TGI,[50],3.2 µM
same,GI50,[51],1.6 µM
same,TGI,[51],4.55 µM
same,GI50,[52],1.64 µM
same,TGI,[52],4.32 µM
same,GI50,[53],1.18 µM
same,TGI,[53],3 µM
same,GI50,[54],0.605 µM
same,TGI,[54],2.01 µM
same,GI50,[55],1.82 µM
same,TGI,[55],3.57 µM
